Consider ten compounds from ChEMBL document CHEMBL1667857, “Discovery of dual binding site acetylcholinesterase inhibitors identified by pharmacophore modeling and sequential virtual screening techniques” (Bioorg Med Chem Lett, 2011).

The target in one experiment is Acetylcholinesterase (Electrophorus electricus, UniProt O42275). Description: Inhibition of electric eel AChE by Ellman's method. On the technique in general: In Ellman's method for cholinesterases, released thiocholine reacts with DTNB.
Acetylcholinesterase, sequence (O42275 whole entry): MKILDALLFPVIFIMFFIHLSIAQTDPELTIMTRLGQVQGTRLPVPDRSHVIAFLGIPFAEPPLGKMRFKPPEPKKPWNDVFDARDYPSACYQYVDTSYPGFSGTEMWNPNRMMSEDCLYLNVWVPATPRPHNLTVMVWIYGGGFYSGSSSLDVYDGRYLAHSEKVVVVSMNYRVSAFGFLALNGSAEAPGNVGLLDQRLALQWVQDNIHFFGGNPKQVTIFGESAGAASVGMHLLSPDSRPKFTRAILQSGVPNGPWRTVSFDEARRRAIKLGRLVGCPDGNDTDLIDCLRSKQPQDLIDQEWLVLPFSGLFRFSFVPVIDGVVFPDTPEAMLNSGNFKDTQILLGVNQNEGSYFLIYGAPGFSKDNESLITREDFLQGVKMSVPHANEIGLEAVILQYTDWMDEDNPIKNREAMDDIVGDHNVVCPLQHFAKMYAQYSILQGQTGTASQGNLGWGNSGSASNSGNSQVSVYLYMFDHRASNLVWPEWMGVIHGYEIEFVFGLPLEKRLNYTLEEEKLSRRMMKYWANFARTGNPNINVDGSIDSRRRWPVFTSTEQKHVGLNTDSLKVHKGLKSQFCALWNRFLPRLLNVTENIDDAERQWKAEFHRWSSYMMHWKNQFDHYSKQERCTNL
In experiment [1] the target is Cholinesterase (Homo sapiens) (UniProt P06276). Description: Inhibition of BChE by Ellman's method. Conditions: concentration not given here.
Cholinesterase (Homo sapiens), sequence (P06276 whole entry): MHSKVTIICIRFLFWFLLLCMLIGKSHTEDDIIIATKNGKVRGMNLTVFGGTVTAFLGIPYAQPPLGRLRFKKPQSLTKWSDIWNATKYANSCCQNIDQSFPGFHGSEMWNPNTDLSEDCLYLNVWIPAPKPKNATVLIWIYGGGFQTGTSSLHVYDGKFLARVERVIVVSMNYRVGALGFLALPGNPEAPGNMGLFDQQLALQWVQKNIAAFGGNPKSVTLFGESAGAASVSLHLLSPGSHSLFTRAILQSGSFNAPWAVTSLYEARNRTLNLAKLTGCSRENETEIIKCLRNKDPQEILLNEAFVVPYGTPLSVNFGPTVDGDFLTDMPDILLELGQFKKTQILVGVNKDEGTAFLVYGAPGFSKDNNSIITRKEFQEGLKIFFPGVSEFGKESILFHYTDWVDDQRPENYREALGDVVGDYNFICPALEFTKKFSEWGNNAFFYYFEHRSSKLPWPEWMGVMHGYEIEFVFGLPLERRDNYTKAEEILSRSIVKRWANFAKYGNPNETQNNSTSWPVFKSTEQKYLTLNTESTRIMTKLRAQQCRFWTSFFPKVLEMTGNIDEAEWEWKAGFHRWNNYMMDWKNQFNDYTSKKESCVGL
Experiment [2] in a line: Selectivity index, ratio of IC50 for electric eel AChE to IC50 for BChE.

Structures are written as SMILES.

In turn, `CCOC(=O)c1c(-c2ccc(OC)c(OC)c2)csc1NC(=O)CCN1CCC(C)CC1` showed an IC50 on Acetylcholinesterase of 3.28 µM. For the same compound, in experiment [1], the inhibition is less than 10%.

The compound `CCN(CC)c1ccc(NC(=O)c2nc3nc(C)cc(C(F)F)n3n2)cc1` came in with an IC50 against Acetylcholinesterase of 1 µM. This counts as single-digit micromolar. Same read-out and setting: for `O=C(CN1CCCCC1)Nc1ccc(NC(=O)CN2CCCCC2)c(Cl)c1` the value was 1 µM; for `COc1ccc(Br)cc1C(=O)Nc1ccc(CN2CCCCC2)cc1`, 1 µM.

In the case of `O=C(C1CCN(c2nnc(N3CCCC3=O)s2)CC1)N1CCCCCC1`, the concentration for half-maximal inhibition (IC50) at Acetylcholinesterase worked out at 1 µM. Also, the Ratio IC50 in experiment [2] turned out to be 342. Regarding `CCc1nc2sc3c(NCCN(C)C)ncnc3c2c2c1CCCC2`, the midpoint of inhibition against Acetylcholinesterase, the IC50, lay at 1 µM.

For the compound `CCc1nn(CC(=O)NCCCN2C[C@H](C)C[C@@H](C)C2)c(=O)c2cc3sc(C)cc3n12`, the half-maximal inhibitory concentration (IC50) at Acetylcholinesterase stood at 2 µM. In addition, the Ratio IC50 in experiment [2] was 698. Compound `Cc1cc(N2CCCC2)nc2ccc(NC(=O)CCC(=O)NC3CCCCC3)cc12` yielded an IC50 against Acetylcholinesterase of 1 µM. That is a single-digit micromolar value. With `CCOC(=O)c1c(NC(=O)CCN2CCC(C)CC2)sc2c1C[C@@H](C)CC2`, half-maximal inhibition at Acetylcholinesterase (IC50) was put at 5.99 µM. This compound registered an inhibition in experiment [1] of less than 10%. `Cc1ccc(OCC(=O)Nc2ccc(CN3CCCCC3)cc2)c(C)c1`: on Acetylcholinesterase, the midpoint of inhibition, the IC50, lay at 1 µM.

What is called IC50 is the concentration at which inhibition is half-maximal. A low value points to greater potency in that assay. One may read the inhibition as the share of the control response that was lost under treatment. A lower inhibition goes with a weak effect.
